Measured values published in patent publication US8148391B2 (Cephalon, Inc., priority 2006, dated 2012).

Experiments:
[1] = biological target: T1, c-Met (cytoplasmic domain) (Homo sapiens, UniProt P08581); test: c-Met Kinase Assay (same methods as for ALK, with modifications); type: biochemical; details: c-Met kinase inhibition, 1 μM ATP (Km level); read-out: cMet Activity
T1 construct: 10 ng/mL c-Met (cytoplasmic domain, Invitrogen Corporation #PV3143); purchased Invitrogen Corporation PV3143
How it was run: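 Steps: coat wells with PLC-γ (10 μg/mL, Tris-buffered saline); add 10 ng/mL c-Met cytoplasmic domain to initiate; incubate 15 min, 37° C; detect phosphoproduct via Eu-N1 PT66 antibody.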

[2] = biological target: T2, baculovirus-expressed ALK (Homo sapiens, UniProt Q9UM73); test: ALK Kinase Assay (ELISA-type, time-resolved fluorescence); type: biochemical; details: ALK kinase inhibition, 1 μM ATP (Km level); read-out: ALK Activity
T2 construct: host or cells: baculovirus expression system
How it was run: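 Wells were coated with phospholipase C-γ at 10 μg/mL in Tris-buffered saline. Adding 30 ng/ml enzyme started the reaction, which ran at 37° C for 15 minutes before Eu-N1 PT66 antibody detection. Percent inhibition versus log10 concentration gave IC50 by variable-slope fit.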

T2 sequence (Q9UM73 19-1620): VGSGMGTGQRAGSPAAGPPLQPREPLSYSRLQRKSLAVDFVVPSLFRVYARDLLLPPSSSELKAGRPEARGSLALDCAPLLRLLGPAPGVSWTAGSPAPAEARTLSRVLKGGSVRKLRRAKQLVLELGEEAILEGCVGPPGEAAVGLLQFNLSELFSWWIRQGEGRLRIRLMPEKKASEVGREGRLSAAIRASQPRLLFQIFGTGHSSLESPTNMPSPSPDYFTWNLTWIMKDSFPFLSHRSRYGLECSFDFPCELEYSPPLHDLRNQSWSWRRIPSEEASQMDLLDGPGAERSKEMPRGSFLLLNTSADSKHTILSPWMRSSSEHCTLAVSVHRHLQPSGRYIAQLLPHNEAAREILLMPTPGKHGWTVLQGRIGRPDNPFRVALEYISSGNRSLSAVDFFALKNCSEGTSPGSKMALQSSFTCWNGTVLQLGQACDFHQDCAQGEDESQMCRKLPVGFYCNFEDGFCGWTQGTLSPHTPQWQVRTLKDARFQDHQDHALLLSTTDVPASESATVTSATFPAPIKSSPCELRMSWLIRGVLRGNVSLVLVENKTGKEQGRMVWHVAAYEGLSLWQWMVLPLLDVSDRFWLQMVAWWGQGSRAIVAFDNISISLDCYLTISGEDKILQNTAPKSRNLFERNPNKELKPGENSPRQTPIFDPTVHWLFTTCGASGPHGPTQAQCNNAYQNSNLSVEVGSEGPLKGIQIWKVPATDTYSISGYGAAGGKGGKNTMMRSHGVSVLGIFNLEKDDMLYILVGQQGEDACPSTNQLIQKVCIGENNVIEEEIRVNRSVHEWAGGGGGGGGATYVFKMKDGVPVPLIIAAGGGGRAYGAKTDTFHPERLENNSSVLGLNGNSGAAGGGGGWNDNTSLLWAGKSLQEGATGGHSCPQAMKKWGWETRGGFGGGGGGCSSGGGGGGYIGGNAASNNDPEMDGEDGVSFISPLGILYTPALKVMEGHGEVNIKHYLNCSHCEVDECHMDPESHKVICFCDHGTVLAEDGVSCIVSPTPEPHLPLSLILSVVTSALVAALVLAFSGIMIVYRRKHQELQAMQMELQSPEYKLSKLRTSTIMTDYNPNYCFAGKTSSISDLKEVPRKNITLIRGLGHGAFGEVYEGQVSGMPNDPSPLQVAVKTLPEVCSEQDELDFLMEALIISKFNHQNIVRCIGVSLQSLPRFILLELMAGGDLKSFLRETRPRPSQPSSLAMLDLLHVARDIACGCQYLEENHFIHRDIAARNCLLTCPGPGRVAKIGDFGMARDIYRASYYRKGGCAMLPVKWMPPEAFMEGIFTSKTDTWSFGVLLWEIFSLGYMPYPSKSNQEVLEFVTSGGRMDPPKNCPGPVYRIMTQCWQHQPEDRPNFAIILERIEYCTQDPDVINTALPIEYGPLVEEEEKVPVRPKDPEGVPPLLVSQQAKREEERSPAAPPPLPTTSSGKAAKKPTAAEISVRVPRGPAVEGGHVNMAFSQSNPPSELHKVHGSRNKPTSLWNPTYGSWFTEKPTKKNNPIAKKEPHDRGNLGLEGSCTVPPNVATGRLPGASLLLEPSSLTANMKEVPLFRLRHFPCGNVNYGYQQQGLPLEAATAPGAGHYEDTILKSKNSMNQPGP
T1 sequence (P08581 956-1390 limits assumed): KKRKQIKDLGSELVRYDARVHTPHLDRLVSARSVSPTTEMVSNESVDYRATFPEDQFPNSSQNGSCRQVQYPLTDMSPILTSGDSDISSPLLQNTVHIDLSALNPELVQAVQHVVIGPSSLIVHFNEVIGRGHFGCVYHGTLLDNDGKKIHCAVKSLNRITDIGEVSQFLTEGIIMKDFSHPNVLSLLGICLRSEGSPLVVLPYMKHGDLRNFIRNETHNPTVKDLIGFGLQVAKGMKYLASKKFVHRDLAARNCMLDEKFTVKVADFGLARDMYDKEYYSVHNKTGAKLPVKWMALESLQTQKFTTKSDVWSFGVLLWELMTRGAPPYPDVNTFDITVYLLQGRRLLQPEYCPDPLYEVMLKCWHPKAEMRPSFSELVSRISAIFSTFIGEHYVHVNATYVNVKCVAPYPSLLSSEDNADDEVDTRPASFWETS

Row | Structure (SMILES) | IC50 [1] | IC50 [2]
1 | CCN1CC2CCC(C1)c1cc(Nc3ncc(Cl)c(Nc4ccccc4S(=O)(=O)NC)n3)ccc12 (centres unmarked) [Example 272, 2-[5-Chloro-2-(10-ethyl-10-aza-tricyclo[6.3.2.0*2,7*]trideca-2,4,6-trien-4-ylamino)-pyrimidin-4-ylamino]-N-methyl-benzenesulfonamide] | 100 to 1000 nM | < 100 nM
2 | CNC(=O)c1ccccc1Nc1nc(Nc2ccc3c(c2)C2CCC3CN(C(C)C)C2)ncc1Cl (centres unmarked) [Example 273, 2-[5-Chloro-2-(10-isopropyl-10-aza-tricyclo[6.3.2.0*2,7*]trideca-2,4,6-trien-4-ylamino)-pyrimidin-4-ylamino]-N-methyl-benzamide] | < 100 nM | < 100 nM
3 | CNS(=O)(=O)c1ccccc1Nc1nc(Nc2ccc3c(c2)C2CCC3CN(C(C)C)C2)ncc1Cl (centres unmarked) [Example 274, 2-[5-Chloro-2-(10-isopropyl-10-aza-tricyclo[6.3.2.0*2,7*]trideca-2,4,6-trien-4-ylamino)-pyrimidin-4-ylamino]-N-methyl-benzenesulfonamide] | < 100 nM | < 100 nM
4 | CNS(=O)(=O)c1ccccc1Nc1nc(Nc2ccc3c(c2)C2CCC3CN(CC#N)C2)ncc1Cl (centres unmarked) [Example 275, 2-[5-Chloro-2-(10-cyanomethyl-10-aza-tricyclo[6.3.2.0*2,7*]trideca-2,4,6-trien-4-ylamino)-pyrimidin-4-ylamino]-N-methyl-benzenesulfonamide] | < 100 nM | < 100 nM
5 | CNC(=O)c1ccccc1Nc1nc(Nc2ccc3c(c2)C2CCC3CN(C(=O)C(F)(F)F)C2)ncc1Cl (centres unmarked) [Example 276, 2-{5-Chloro-2-[10-(2,2,2-trifluoro-acetyl)-10-aza-tricyclo[6.3.2.0*2,7*]trideca-2,4,6-trien-4-ylamino]-pyrimidin-4-ylamino}-N-methyl-benzamide] | < 100 nM | 100 to 1000 nM
6 | CNC(=O)c1ccccc1Nc1nc(Nc2ccc3c(c2)C2CCC3CNC2)ncc1Cl (centres unmarked) [Example 277, 2-[2-(10-Aza-tricyclo[6.3.2.0*2,7*]trideca-2,4,6-trien-4-ylamino)-5-chloro-pyrimidin-4-ylamino]-N-methyl-benzamide] | < 100 nM | < 100 nM
7 | CNC(=O)c1ccccc1Nc1nc(Nc2ccc3c(c2)C2CCC3CN(S(C)(=O)=O)C2)ncc1Cl (centres unmarked) [Example 278, 2-[5-Chloro-2-(10-methanesulfonyl-10-aza-tricyclo[6.3.2.0*2,7*]trideca-2,4,6-trien-4-ylamino)-pyrimidin-4-ylamino]-N-methyl-benzamide] | < 100 nM | < 100 nM
8 | C#CCN1CC2CCC(C1)c1cc(Nc3ncc(Cl)c(Nc4ccccc4C(=O)NC)n3)ccc12 (centres unmarked) [Example 279, 2-[5-Chloro-2-(10-prop-2-ynyl-10-aza-tricyclo[6.3.2.0*2,7*]trideca-2,4,6-trien-4-ylamino)-pyrimidin-4-ylamino]-N-methyl-benzamide] | < 100 nM | < 100 nM
9 | CNC(=O)c1ccccc1Nc1nc(Nc2ccc3c(c2)C2CCC3CN(CCF)C2)ncc1Cl (centres unmarked) [Example 280, 2-{5-Chloro-2-[10-(2-fluoro-ethyl)-10-aza-tricyclo[6.3.2.0*2,7*]trideca-2,4,6-trien-4-ylamino]-pyrimidin-4-ylamino}-N-methyl-benzamide] | < 100 nM | < 100 nM
10 | CNC(=O)c1ccccc1Nc1nc(Nc2ccc3c(c2)C2CCC3CN(CC#N)C2)ncc1Cl (centres unmarked) [Example 281, 2-[5-Chloro-2-(10-cyanomethyl-10-aza-tricyclo[6.3.2.0*2,7*]trideca-2,4,6-trien-4-ylamino)-pyrimidin-4-ylamino]-N-methyl-benzamide] | < 100 nM | < 100 nM
11 | CNC(=O)c1ccccc1Nc1nc(Nc2ccc3c(c2)C2CCC3CN(CCOC)C2)ncc1Cl (centres unmarked) [Example 282, 2-{5-Chloro-2-[10-(2-methoxy-ethyl)-10-aza-tricyclo[6.3.2.0*2,7*]trideca-2,4,6-trien-4-ylamino]-pyrimidin-4-ylamino}-N-methyl-benzamide] | < 100 nM | < 100 nM
12 | CNC(=O)c1ccccc1Nc1nc(Nc2ccc3c(c2)C2CCC3CN(C(C)=O)C2)ncc1Cl (centres unmarked) [Example 283, 2-[2-(10-Acetyl-10-aza-tricyclo[6.3.2.0*2,7*]trideca-2,4,6-trien-4-ylamino)-5-chloro-pyrimidin-4-ylamino]-N-methyl-benzamide] | < 100 nM | < 100 nM
13 | CNS(=O)(=O)c1ccccc1Nc1nc(Nc2ccc3c(c2)C2CCC3CN(C(=O)C(F)(F)F)C2)ncc1Cl (centres unmarked) [Example 284, 2-{5-Chloro-2-[10-(2,2,2-trifluoro-acetyl)-10-aza-tricyclo[6.3.2.0*2,7*]trideca-2,4,6-trien-4-ylamino]-pyrimidin-4-ylamino}-N-methyl-benzenesulfonamide] | 100 to 1000 nM | < 100 nM
14 | CNS(=O)(=O)c1ccccc1Nc1nc(Nc2ccc3c(c2)C2CCC3CNC2)ncc1Cl (centres unmarked) [Example 285, 2-[2-(10-Aza-tricyclo[6.3.2.0*2,7*]trideca-2,4,6-trien-4-ylamino)-5-chloro-pyrimidin-4-ylamino]-N-methyl-benzenesulfonamide] | < 100 nM | < 100 nM
15 | CNS(=O)(=O)c1ccccc1Nc1nc(Nc2ccc3c(c2)C2CCC3CN(S(C)(=O)=O)C2)ncc1Cl (centres unmarked) [Example 286, 2-[5-Chloro-2-(10-methanesulfonyl-10-aza-tricyclo[6.3.2.0*2,7*]trideca-2,4,6-trien-4-ylamino)-pyrimidin-4-ylamino]-N-methyl-benzenesulfonamide] | < 100 nM | < 100 nM
16 | C#CCN1CC2CCC(C1)c1cc(Nc3ncc(Cl)c(Nc4ccccc4S(=O)(=O)NC)n3)ccc12 (centres unmarked) [Example 287, 2-[5-Chloro-2-(10-prop-2-ynyl-10-aza-tricyclo[6.3.2.0*2,7*]trideca-2,4,6-trien-4-ylamino)-pyrimidin-4-ylamino]-N-methyl-benzenesulfonamide] | 100 to 1000 nM | < 100 nM
17 | C#CCN1CC2CCC(C1)c1cc(Nc3ncc(Cl)c(Nc4ccccc4S(=O)(=O)N(C)CC#C)n3)ccc12 (centres unmarked) [Example 288, 2-[5-Chloro-2-(10-prop-2-ynyl-10-aza-tricyclo[6.3.2.0*2,7*]trideca-2,4,6-trien-4-ylamino)-pyrimidin-4-ylamino]-N-methyl-N-prop-2-ynyl-benzenesulfonamide] | 100 to 1000 nM | < 100 nM
18 | CNS(=O)(=O)c1ccccc1Nc1nc(Nc2ccc3c(c2)C2CCC3CN(C(C)=O)C2)ncc1Cl (centres unmarked) [Example 289, 2-[2-(10-Acetyl-10-aza-tricyclo[6.3.2.0*2,7*]trideca-2,4,6-trien-4-ylamino)-5-chloro-pyrimidin-4-ylamino]-N-methyl-benzenesulfonamide] | 100 to 1000 nM | < 100 nM
19 | COc1cc(N2CCOCC2)ccc1Nc1nc(Nc2ccc3c(c2)C2CCC3CN(C(=O)C(F)(F)F)C2)ncc1Cl (centres unmarked) [Example 290, 2-{4-[5-Chloro-4-(2-methoxy-4-morpholin-4-yl-phenylamino)-pyrimidin-2-ylamino]-10-aza-tricyclo[6.3.2.0*2,7*]trideca-2,4,6-trien-10-yl}-2,2,2-trifluoro-ethanone] | > 10000 nM | 100 to 1000 nM
20 | CS(=O)(=O)Nc1ccccc1Nc1nc(Nc2ccc3c(c2)C2CCC3CN(C(=O)C(F)(F)F)C2)ncc1Cl (centres unmarked) [Example 291, N-(2-{5-Chloro-2-[10-(2,2,2-trifluoro-acetyl)-10-aza-tricyclo[6.3.2.0*2,7*]trideca-2,4,6-trien-4-ylamino]-pyrimidin-4-ylamino}-phenyl)-methanesulfonamide] | 1000 to 10000 nM | < 100 nM
21 | CS(=O)(=O)N[C@@H]1CCCC[C@H]1Nc1nc(Nc2ccc3c(c2)C2CCC3CNC2)ncc1Cl (stereo partly drawn) [Example 293, N-{(1R,2R)-2-[2-(10-Aza-tricyclo[6.3.2.0*2,7*]trideca-2,4,6-trien-4-ylamino)-5-chloro-pyrimidin-4-ylamino]-cyclohexyl}-methanesulfonamide] | 1000 to 10000 nM | < 100 nM
22 | CS(=O)(=O)N[C@@H]1CCCC[C@H]1Nc1nc(Nc2ccc3c(c2)C2CCC3CN(S(C)(=O)=O)C2)ncc1Cl (stereo partly drawn) [Example 294, N-{(1R,2R)-2-[5-Chloro-2-(10-methanesulfonyl-10-aza-tricyclo[6.3.2.0*2,7*]trideca-2,4,6-trien-4-ylamino)-pyrimidin-4-ylamino]-cyclohexyl}-methanesulfonamide] | 100 to 1000 nM | < 100 nM
23 | CC(=O)N1CC2CCC(C1)c1cc(Nc3ncc(Cl)c(N[C@@H]4CCCC[C@H]4NS(C)(=O)=O)n3)ccc12 (stereo partly drawn) [Example 295, N-{(1R,2R)-2-[2-(10-Acetyl-10-aza-tricyclo[6.3.2.0*2,7*]trideca-2,4,6-trien-4-ylamino)-5-chloro-pyrimidin-4-ylamino]-cyclohexyl}-methanesulfonamide] | 100 to 1000 nM | < 100 nM
24 | CC(C)N1CC2CCC(C1)c1cc(Nc3ncc(Cl)c(N[C@@H]4CCCC[C@H]4NS(C)(=O)=O)n3)ccc12 (stereo partly drawn) [Example 296, N-{(1R,2R)-2-[5-Chloro-2-(10-Isopropyl-10-aza-tricyclo[6.3.2.0*2,7*]trideca-2,4,6-trien-4-ylamino)-pyrimidin-4-ylamino]-cyclohexyl}-methanesulfonamide] | 100 to 1000 nM | < 100 nM
25 | CNC(=O)c1ccccc1Nc1nc(Nc2ccc3c(c2Br)C2CCC3CN(C(=O)C(F)(F)F)C2)ncc1Cl (centres unmarked) [Example 297, 2-{2-[3-Bromo-10-(2,2,2-trifluoro-acetyl)-10-aza-tricyclo[6.3.2.0*2,7*]trideca-2,4,6-trien-4-ylamino]-5-chloro-pyrimidin-4-ylamino}-N-methyl-benzamide] | > 10000 nM | 100 to 1000 nM
